Source: patent US6589937B1, “Peptides and nootropic agent” (Kabushiki Kaisha Yakult Honsha, priority 1996, dated 2003)
Where a SMILES comes first, the peptide text is derived from it. [ ]: non-standard residue; d: D form. The star is where a group is joined. X1 = N=C(N)NCCC[C@H](N)C(=O)N[C@@H](Cc1c[nH]cn1)C(=O)N1CCC[C@H]1C(=O)N[C@@H](CS*)C(=O)O; pGlu = O=C1CC[C@@H](C(=O)O)N1

Key:
[1] = Evaluation of brain transition (CNS distribution after i.v. administration); conditions: mouse, in vivo, iv
Description: C-AVP 4-9-000 (389 Ci/mmol) labeled with ^125I by the chloramine-T method was administered (i.v.) to mice in 1 μCi, ^125I-C-AVP 4-9-000 in plasma was quantitated by separating the methanol extract using Radio-HPLC.
In the case of AS22, the radioactivity contained in the trifluoroacetic acid precipitate fraction was made the ^125I-AS22 amount. Further, ^125I-C-AVP 4-9-000 was quantitated by separating the methanol extract using Radio-HPLC.

[2] = assay type: in vitro ADME, rat
Description: C-AVP 4-9 series compound can be hydrolyzed in brain by the action of prolyl endopeptidase, and it is considered that they are converted to AVP 4-9.
Therefore, 500 μM of C-AVP 4-9-000 were incubated (6 hr., 37° C.) with a rat cerebral homogenate (100 μg/rat) in the presence or in the absence of carbobenzoyloxy prolyl-prolinal (ZPP, 20 μM) as known as a potent inhibitor for propyl endopeptitase. After incubation metabolites were extracted with methanol. The metabolites were analyzed by HPLC. Further, ZPP is a specific inhibitor for prolyl endopeptidase. After methanol extraction, the metabolites were quantitated by the separation with HPLC.

[3] = PI value by isoelectrofocusing (capillary electrophoresis); assay type: physicochemical; conditions: peptide 5 μg, UV 214 nm
Description: Further, the PI value was analyzed by the isoelectrofocusing method for the peptide 5 μg using a capillary electrophoretic apparatus (Beckman P/ACE 5000) and an isoelectrofocusing kit (eCAP 3-10, Beckman). The detection was carried out by UV 214 nm.

rats = assay: Passive avoidance test, administration 180 min before retention test; assay type: in vivo; conditions: rat, s.c., administered 3 hr before retention test
Description: The test solution in which each of these test drugs dissolved in saline was subcutaneously administered to rats. As to animals, male Wister rats (aged 7-9 weeks) were bought from Japan Charles River (JCR) and used after the preliminary feeding for more than one week. At the time of the preliminary feeding it lighted up from AM 8.00 to PM 8.00.
It was carried out by partially modifying the method of Ader R. R. (Psycon. Sci., 26, p125-128, 1972). Namely, rats were let stay in a light room of the passive avoidance test apparatus consisting of a light and dark rooms, and were let move freely for 2 min. After 45 min., the rats were let stay again in the light room. When the rats went into the dark room, the electric current 0.3 mA was applied for 30 sec. by Muromachikikai SGS-002 on the floor of the dark room. Further, in all processes of the experiment the rats were let move freely between the dark room and the light room. Each peptide was subcutaneously administered at 23 hr. (1 hr. before the retention test) after the electric shock. Subsequently, the rats were let stay in the light room after 1 hr. (24 hr. after the electric shock), the time (latency) when the rats went into the dark room was measured (retention test).
The test was carried out according to the test 2 except that the administration of the test solution was made at 21 hr. […]

| formation of AVP 4-9 after 6 hour's incubation [2] | parent remaining after 6 hour's incubation ([2]; rat, brain homogenate, 6 h) | Compound | transition into brain [1] | PI values [3] | effectiveness in passive avoidance (latency) (rats) |
| --- | --- | --- | --- | --- | --- |
| the formation of AVP 4-9 was observed | scarcely remained | N=C(N)NCCC[C@H](NC(=O)[C@@H]1CCCN1C(=O)[C@H](CSSC[C@H](NC(=O)[C@@H]1CCCN1C(=O)[C@H](Cc1c[nH]cn1)NC(=O)[C@@H](N)CCCNC(=N)N)C(=O)O)NC(=O)[C@H](CC(N)=O)NC(=O)[C@@H]1CCC(=O)N1)C(=O)NCC(N)=O [C-AVP 4-9-000] ([pGlu]NC(X1)PRG-NH2) | transited into brain in a sufficient concentration | – | – |
| – | – | pGlu-Asn-Cys-Pro-Arg-Gly-NH2 ([pGlu]NCPRG-NH2) [AVP 4-9, 4-9 fragment of arginine vasopressin, control drug] | – | 9.27 | did not show any significant effectiveness |
